Experimental data reported in patent publication US9232799B2, “N-[(het)arylethyl)] pyrazole(thio)carboxamides and their heterosubstituted analogues” (BAYER INTELLECTUAL PROPERTY GMBH, priority 2010, dated 2016).
“And” between values parts separate entries of the source, which are not always exact repeats. Equal values may be shown once. Read-outs that look alike come from different tables or passages of the source.

Tests used:
[1] = logP by HPLC on reversed-phase column (C 18), EEC Directive 79/831 Annex V.A8; format: physicochemical
Experimental: In table 1, the logP values were determined in accordance with EEC Directive 79/831 Annex V.A8 by HPLC (High Performance Liquid Chromatography) on a reversed-phase column (C 18), using the method described below: Temperature: 40° C.; […]

[2] = system: Alternaria solani; assay: In vivo preventive test on Alternaria solani (tomato); conditions: evaluated 7 days after inoculation
Excerpt: One day after this treatment, the plants are inoculated with an aqueous spore suspension of Alternaria solani.

[3] = system: Pyrenophora teres; assay: In vivo preventive test on Pyrenophora teres (barley); conditions: 500 ppm of active ingredient, evaluated 7-9 days after inoculation
Excerpt: One day after this treatment, the plants are inoculated with an aqueous spore suspension of Pyrenophora teres.

| SMILES | logP [1] | other results |
| --- | --- | --- |
| Cn1nc(C(F)F)c(C(=S)N(C2CC2)C2CCCCC2(C)c2ccccc2)c1F (mixture of isomers) [Example 219] |  | logP ([1]; HPLC on reversed-phase column (C 18), 40° C., 0.1% aqueous formic acid and acetonitrile, linear gradient 10% to 90% acetonitrile): 5.01 and 5.11 |
| COC(CNC(=O)c1cn(C)nc1C(F)F)c1ccc(Cl)cc1Cl (stereo not shown) [1.02 from WO-2008/148570, N-[2-(2,4-dichlorophenyl)-2-methoxyethyl]-3-(difluoromethyl)-1-methyl-1H-pyrazole-4-carboxamide, reference compound] |  | Efficacy ([2]; 100 ppm of active ingredient): 40%; Efficacy ([2]; 100 ppm of active ingredient, listed as 1.02): less than 40%; Efficacy ([2]; 500 ppm of active ingredient): 80%; Efficacy ([2]; 500 ppm of active ingredient, listed as 1.02): at least 80% |
| Cn1nc(C(F)F)c(C(=O)N(CCc2ccccc2)C2CCCC2)c1F [Example 1] | 3.69 |  |
| CC(C)N(CCc1ccccc1)C(=O)c1c(C(F)F)nn(C)c1F [Example 2] | 3.19 |  |
| Cn1nc(C(F)F)c(C(=O)N(CCC#N)CCc2ccccc2)c1F [Example 3] | 2.39 |  |
| Cn1nc(C(F)F)c(C(=O)N(CCc2ccccc2)CC(F)(F)F)c1F [Example 5] | 3.25 | Efficacy [3]: 80% |
| Cn1nc(C(F)F)c(C(=O)N(CCC#N)CCc2ccccc2)c1Cl [Example 8] | 2.53 |  |
| CCN(CCc1ccc(Cl)cc1)C(=S)c1c(C(F)F)nn(C)c1F [Example 58] | 3.92 | Efficacy [3]: 100% |
| Cn1nc(C(F)F)c(C(=S)NCCc2ccc(Cl)cc2Cl)c1Cl [Example 72] | 4.11 | Efficacy ([2]; 500 ppm of active ingredient): 94%; Efficacy [3]: 100% |
| Cn1nc(C(F)F)c(C(=O)NCC(C)(C)c2cc(Cl)cc(Cl)c2)c1F [Example 113] | 3.87 | Efficacy ([2]; 500 ppm of active ingredient): 80%; Efficacy [3]: 90% |
| Cn1nc(C(F)F)c(C(=O)NCC(C)(C)c2cc(Cl)cc(Cl)c2)c1Cl [Example 114] | 4.01 | Efficacy [3]: 80% |
| COc1ccc(CCN(C(=O)c2c(C(F)F)nn(C)c2F)C2CCCCC2)cc1OC [Example 130] | 3.42 |  |
| Cc1cc(C)c(CCN(C(=O)c2c(C(F)F)nn(C)c2F)C(C)C)c(C)c1 [Example 134] | 4.30 |  |
| Cc1cc(C)c(CCN(C)C(=O)c2c(C(F)F)nn(C)c2Cl)c(C)c1 [Example 137] | 3.67 | Efficacy ([2]; 500 ppm of active ingredient): 90% |
| Cn1nc(C(F)F)c(C(=O)NCCc2ccccc2Oc2ccccc2)c1Cl [Example 141] | 3.64 | Efficacy ([2]; 500 ppm of active ingredient): 80% |
| Cn1nc(C(F)F)c(C(=O)NC(C)(C)Cc2cccc(Oc3ccccc3)c2)c1Cl [Example 144] | 4.30 | Efficacy ([2]; 500 ppm of active ingredient): 95% |
| Cn1nc(C(F)F)c(C(=O)NCCc2cccc(Oc3ccccc3)c2)c1Cl [Example 145] | 3.55 | Efficacy ([2]; 500 ppm of active ingredient): 95% |
| Cn1nc(C(F)F)c(C(=O)NCC(C)(C)c2cccc(Oc3ccccc3)c2)c1F [Example 148] | 3.92 |  |
| Cn1nc(C(F)F)c(C(=O)NCC(C)(C)c2cccc(Oc3ccccc3)c2)c1Cl [Example 149] | 4.15 |  |

| SMILES | logP [1] | other results |
| --- | --- | --- |
| Cn1nc(C(F)F)c(C(=O)NCC(C)(C)c2ccc(Oc3ccccc3)cc2)c1F [Example 157] | 4.06 | Efficacy [3]: 80% |
| Cn1nc(C(F)F)c(C(=O)NCC(C)(C)c2ccc(Oc3ccccc3)cc2)c1Cl [Example 158] | 4.21 | Efficacy ([2]; 500 ppm of active ingredient): 80% |
| Cn1nc(C(F)F)c(C(=O)N(CCc2ccccn2)C2CCCCC2)c1F [Example 175] | 1.48 |  |
| Cn1nc(C(F)F)c(C(=O)N(CCc2ccccn2)C2CCCC2)c1F [Example 176] | 1.29 |  |
| COCCN(CCc1ccccn1)C(=O)c1c(C(F)F)nn(C)c1F [Example 177] | 0.50 |  |
| CC(C)N(CCc1ccccn1)C(=O)c1c(C(F)F)nn(C)c1F [Example 178] | 0.85 |  |
| CN(CCc1ccccn1)C(=O)c1c(C(F)F)nn(C)c1F [Example 179] | 1.47 |  |
| COCCN(CCc1ccccn1)C(=O)c1c(C(F)F)nn(C)c1Cl [Example 184] | 0.63 |  |
| Cn1nc(C(F)F)c(C(=O)NCCc2ccc(Cl)nc2)c1F [Example 197] | 1.78 |  |
| CC(C)N(CCc1ccncc1)C(=O)c1c(C(F)F)nn(C)c1F [Example 198] | 0.78 |  |
| COCCN(CCc1ccncc1)C(=O)c1c(C(F)F)nn(C)c1F [Example 199] | 1.56 |  |
| Cn1nc(C(F)F)c(C(=O)N(CCc2ccncc2)C2CCCCC2)c1F [Example 200] | 1.39 |  |
| Cn1nc(C(F)F)c(C(=O)N(CCc2ccncc2)C2CCCC2)c1F [Example 201] | 1.20 |  |
| CC(CN(C)C(=O)c1c(C(F)F)nn(C)c1F)c1ccncc1 (stereo not shown) [Example 206] | 1.60 |  |
| Cn1nc(C(F)F)c(C(=O)NCCc2c(F)c(F)nc(F)c2F)c1Cl [Example 209] | 2.60 |  |
| Cn1nc(C(F)F)c(C(=O)NC2CCCCC2c2ccccc2)c1F (stereo not shown) [Example 213] | 3.29 | Efficacy ([2]; 500 ppm of active ingredient): 89% |
| Cn1nc(C(F)F)c(C(=O)NC2CCCCC2c2ccccc2)c1Cl (stereo not shown) [Example 214] | 3.33 |  |
| Cn1nc(C(F)F)c(C(=S)NC[Si](C)(C)c2ccc(Cl)cc2Cl)c1F [Example 241] | 4.74 | Efficacy [3]: 100% |

More lines, main results first:

| logP [1] | SMILES | other results |
| --- | --- | --- |
| 3.89 | Cn1nc(C(F)F)c(C(=O)N(CCc2ccccc2)C2CCCC2)c1Cl [Example 6] |  |
| 3.35 | CC(C)N(CCc1ccccc1)C(=O)c1c(C(F)F)nn(C)c1Cl [Example 7] |  |
| 2.60 | CN(CCc1ccccc1)C(=O)c1c(C(F)F)nn(C)c1Cl [Example 9] | Efficacy ([2]; 500 ppm of active ingredient): 95%; Efficacy [3]: 95% |
| 3.39 | Cn1nc(C(F)F)c(C(=O)N(CCc2ccccc2)CC(F)(F)F)c1Cl [Example 10] |  |
| 2.71 | CCN(C(=O)c1c(C(F)F)nn(C)c1Cl)C(C)C(=O)c1ccccc1 (stereo not shown) [Example 18] |  |
| 3.23 | CC(C)N(CCc1ccc(F)cc1)C(=O)c1c(C(F)F)nn(C)c1F [Example 23] |  |
| 3.37 | CC(C)N(CCc1ccc(F)cc1)C(=O)c1c(C(F)F)nn(C)c1Cl [Example 25] |  |
| 3.57 | CC(Cc1c(F)cccc1F)N(C(=O)c1c(C(F)F)nn(C)c1Cl)C1CC1 (stereo not shown) [Example 27] | Efficacy ([2]; 500 ppm of active ingredient): 95%; Efficacy [3]: 95% |
| 3.27 | Cn1nc(C(F)F)c(C(=O)NCC(C)(C)c2ccccc2Cl)c1F [Example 45] | Efficacy ([2]; 500 ppm of active ingredient): 90%; Efficacy [3]: 100% |
| 3.48 | Cn1nc(C(F)F)c(C(=O)NCC(C)(C)c2ccccc2Cl)c1Cl [Example 46] | Efficacy ([2]; 500 ppm of active ingredient): 70% |
| 3.17 | CC(Cc1cccc(Cl)c1)NC(=O)c1c(C(F)F)nn(C)c1Cl (stereo not shown) [Example 48] | Efficacy ([2]; 500 ppm of active ingredient): 95%; Efficacy [3]: 100% |
| 3.31 | Cn1nc(C(F)F)c(C(=O)NCC(C)(C)c2cccc(Cl)c2)c1F [Example 53] | Efficacy ([2]; 500 ppm of active ingredient): 70%; Efficacy [3]: 94% |
| 3.53 | Cn1nc(C(F)F)c(C(=O)NCC(C)(C)c2cccc(Cl)c2)c1Cl [Example 54] |  |
| 3.35 | CCN(CCc1ccc(Cl)cc1)C(=O)c1c(C(F)F)nn(C)c1Cl [Example 57] | Efficacy ([2]; 500 ppm of active ingredient): 80%; Efficacy [3]: 70% |
| 2.68 | CN(CC(=O)c1ccc(Cl)cc1)C(=O)c1c(C(F)F)nn(C)c1Cl [Example 62] |  |
| 3.37 | Cn1nc(C(F)F)c(C(=O)NCC(C)(C)c2ccc(Cl)cc2)c1F [Example 63] | Efficacy ([2]; 500 ppm of active ingredient): 90%; Efficacy [3]: 94% |
| 3.58 | Cn1nc(C(F)F)c(C(=O)NCC(C)(C)c2ccc(Cl)cc2)c1Cl [Example 64] | Efficacy ([2]; 500 ppm of active ingredient): 100% |
| 4.72 | Cn1nc(C(F)F)c(C(=S)NCC(C)(C)c2ccc(Cl)cc2Cl)c1Cl [Example 89] | Efficacy [3]: 100% |

| logP [1] | SMILES | other results |
| --- | --- | --- |
| 4.29 | CC(Cc1c(Cl)cccc1Cl)N(C(=O)c1c(C(F)F)nn(C)c1Cl)C1CC1 (stereo not shown) [Example 116] | Efficacy ([2]; 500 ppm of active ingredient): 100%; Efficacy [3]: 100% |
| 2.18 | COc1ccc(CCN(C)C(=O)c2c(C(F)F)nn(C)c2Cl)cc1OC [Example 131] |  |
| 3.53 | COc1ccc(CCN(C(=O)c2c(C(F)F)nn(C)c2Cl)C2CCCCC2)cc1OC [Example 132] |  |
| 4.49 | Cc1cc(C)c(CCN(C(=O)c2c(C(F)F)nn(C)c2Cl)C(C)C)c(C)c1 [Example 136] |  |
| 1.58 | Cn1nc(C(F)F)c(C(=O)N(CCc2ccccn2)C2CCCCC2)c1Cl [Example 180] |  |
| 1.40 | Cn1nc(C(F)F)c(C(=O)N(CCc2ccccn2)C2CCCC2)c1Cl [Example 181] |  |
| 1.00 | CC(C)N(CCc1ccccn1)C(=O)c1c(C(F)F)nn(C)c1Cl [Example 182] |  |
| 1.63 | CN(CCc1ccccn1)C(=O)c1c(C(F)F)nn(C)c1Cl [Example 183] |  |
| 1.70 | Cc1cccnc1CC(NC(=O)c1c(C(F)F)nn(C)c1Cl)C(F)(F)F (stereo not shown) [Example 186] |  |
| 1.90 | Cn1nc(C(F)F)c(C(=O)NCCc2ccc(Cl)nc2)c1Cl [Example 196] |  |
| 1.50 | Cn1nc(C(F)F)c(C(=O)N(CCc2ccncc2)C2CCCCC2)c1Cl [Example 203] |  |
| 1.32 | Cn1nc(C(F)F)c(C(=O)N(CCc2ccncc2)C2CCCC2)c1Cl [Example 204] |  |
| 0.98 | CC(C)N(CCc1ccncc1)C(=O)c1c(C(F)F)nn(C)c1Cl [Example 205] |  |
| 2.75 | Cn1nc(C(F)F)c(C(=O)NC2CC2c2ccc(F)cc2)c1Cl (stereo not shown) [Example 221] |  |
| 2.75 | Cn1nc(C(F)F)c(C(=O)NC2CC2c2cccc(F)c2)c1Cl (stereo not shown) [Example 223] |  |
| 3.15 | Cn1nc(C(F)F)c(C(=O)NC2CC2c2ccccc2C(F)(F)F)c1Cl (stereo not shown) [Example 226] |  |
| 4.51 | Cn1nc(C(F)F)c(C(=O)N(C[Si](C)(C)c2ccc3ccccc3c2)C2CC2)c1Cl [Example 246] |  |
